Measurements taken from patent US20240351981A1, “NOVEL BISMALEIMIDE COMPOUNDS HAVING IMPROVED SOLUBILITY AND THEIR USE IN CURABLE COMPOSITIONS” (Evonik Operations GmbH, priority 2021, published 2024).

Assay: Solubility of bismaleimides in organic solvents (saturated solution, gravimetric)
Format: physicochemical
Settings: in comparison to other aliphatic bismaleimides
Experimental: The solubility of compounds in the present invention is determined as follows: • 10 g of a sample are weighed into a 100 ml conical flask. 50 ml of a solvent are added to the flask and the mixture is stirred with magnetic bar for 1 h at 25° C. to assure the formation of a saturated solution. If the entire sample is dissolved, additional portion of the sample should be added and the mixture should be stirred further for 1 h. In the end, a portion of undissolved material should be clearly seen at the bottom of the flask. After that, the supematant is filtered through a folded filter. Some 15 g of the filtrate are weighed into a tared round-bottom flask, and the solvent is evaporated to dryness on a rotary evaporator at 90° C. under reduced pressure. Finally, the flask is dried in a vacuum drying cabinet at 120° C. for 2 h under reduced pressure, cooled down to room temperature in a desiccator and weighed.
The solubility value is then calculated as:
The solubility of the example and comparative examples was determined as follows: • 10 g of a sample were weighed into a 100 ml conical flask. 50 ml of a solvent were added to the flask and the mixture was stirred with magnetic bar for 1 h at 25° C. to assure the formation of a saturated solution. If the entire sample was dissolved, additional portion of the sample should be added and the mixture should be stirred further for 1 h. […]

Solubility in different organic solvents (in words): highly soluble
SMILES: CC1CC(C(CN2C(=O)C=CC2=O)CN2C(=O)C=CC2=O)CC(C)(C)C1 (stereo not shown) [2-(3,3,5-trimethylcyclohexyl)propane-1,3-bismaleimide]
